Measured values from patent publication US20210177814A1, “USE OF GUANABENZ OR DERIVATES THEREOF FOR THE TREATMENT OF TYPE I IFN-DEPENDENT PATHOLOGIES” (INSERM (Institut National de la Santé et de la Recherche …, priority 2018, published 2021).

Assays:
[1] = tested on: RIG-I like receptor (RLR) dsRNA sensing pathway; experiment: IRF3 activation and IFN-β expression in MEFs lipofected with poly(I:C); format: cell-based, mouse; conditions: WT and Gadd34-deficient
Experimental: FIG. 2: Interferon β (IFNb) production in response to cytosolic dsRNA (Poly I:C) in WT and Gadd34-deficient embryonic fibroblasts (MEFs) treated with Guanabenz.
(A) IFNb expression in response to lipofected dsRNA (poly I:C) was measured by qPCR (mRNA) or (B) by ELISA (secreted protein) after treatment with Guanabenz (GBZ). (C) Activation of the transcription IRF3 by phosphorylation that drives IFN-β mRNA expression was monitored by western blot in WT and Gadd34-deficient animals (ΔC/ΔC, KO or −/−) in response to lipofected poly I:C in presence of GBZ. (D) eIF2α A/A mutants MEFs (unable to phosphorylate eIF2α on Serine 52, that is targeted by GADD34 and to inhibit protein synthesis) were also tested for IFN-β production and IRF3 activation.

[2] = target: T1, TLR9 (Homo sapiens, UniProt Q9NR96); experiment: Cytokine secretion by human primary blood pDCs activated with CpG ODN 2216 or lupus patient serum; format: cell-based; set-up: endogenous in cells; host or cells: human primary blood pDCs; conditions: 3 μM CpG ODN 2216 or 2% lupus serum, GBZ 50 μM
T1 sequence (Q9NR96 26-1032): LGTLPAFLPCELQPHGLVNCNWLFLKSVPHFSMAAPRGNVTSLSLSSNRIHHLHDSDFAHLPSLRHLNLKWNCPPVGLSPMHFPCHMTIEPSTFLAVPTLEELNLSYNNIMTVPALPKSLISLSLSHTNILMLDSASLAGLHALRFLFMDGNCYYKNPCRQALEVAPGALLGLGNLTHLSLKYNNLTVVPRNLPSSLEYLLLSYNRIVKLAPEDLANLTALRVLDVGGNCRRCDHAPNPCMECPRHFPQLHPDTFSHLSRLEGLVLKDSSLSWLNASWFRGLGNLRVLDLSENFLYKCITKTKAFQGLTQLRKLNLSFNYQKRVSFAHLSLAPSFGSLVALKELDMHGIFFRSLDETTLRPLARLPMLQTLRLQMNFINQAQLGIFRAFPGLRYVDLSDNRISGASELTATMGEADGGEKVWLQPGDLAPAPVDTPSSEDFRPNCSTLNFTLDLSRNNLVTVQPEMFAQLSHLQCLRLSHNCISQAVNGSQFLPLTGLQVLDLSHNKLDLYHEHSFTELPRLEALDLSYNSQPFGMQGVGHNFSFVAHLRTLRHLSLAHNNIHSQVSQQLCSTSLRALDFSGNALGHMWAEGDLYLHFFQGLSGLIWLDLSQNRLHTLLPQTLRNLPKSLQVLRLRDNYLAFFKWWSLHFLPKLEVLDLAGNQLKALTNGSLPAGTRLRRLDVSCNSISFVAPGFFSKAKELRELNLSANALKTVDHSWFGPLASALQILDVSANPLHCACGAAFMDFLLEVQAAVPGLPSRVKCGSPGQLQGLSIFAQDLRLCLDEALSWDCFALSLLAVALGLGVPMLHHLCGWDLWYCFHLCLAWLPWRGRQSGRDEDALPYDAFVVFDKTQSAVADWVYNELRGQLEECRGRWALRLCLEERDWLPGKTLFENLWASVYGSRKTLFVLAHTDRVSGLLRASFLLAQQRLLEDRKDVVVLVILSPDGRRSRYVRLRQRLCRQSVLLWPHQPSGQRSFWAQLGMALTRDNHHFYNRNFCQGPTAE
Experimental: FIG. 1: Guanabenz inhibits TLR3 and TLR9 activation in mouse Flt3-L DCs and human blood pDCs. A) Sorted bone marrow derived Flt3L-DCs were activated for 6 h with 10 μg/mL poly I:C LMW (TLR3 in DC1) or 1 μM ODN 1585 (TLR9 in pDCs). GBZ was added at 50 μM and inhibited IFN-β and Interleukin-6 (IL-6) production in activated cells. B) hTLR4, hTLR3, hTLR9 and hTLR7 expressed in the reporter HEK-Blue™ cells are inhibited by GBZ. TLR-expressing HEK-Blue™ cells were respectively activated with 100 ng/mL LPS, 10 μg/mL poly I:C LMW, 2.5 μM ODN 2006 or 5 μg/mL imiquimod, respectively. GBZ was added at 50 μM. TLR activity was measured indirectly through SEAP activity as absorbance at 405 nm. […] Protein concentration of IFN-α and TNF-α secreted were measured at the indicated time points or at 16 h. […]
Mouse IFN-β quantification in culture supernatant was performed using the Mouse Interferon Beta ELISA kit (PBL InterferonSource); mouse IL-6, TNFα, IL-10, human TNFα and human IFNα were quantified using ELISA kit (eBioscience) respectively, according to manufacturer instructions.
Given the efficiency of GBZ on mouse TLR3 and TLR9, we turned to human TLRs, in order to extend the relevance of our observations. GBZ-mediated inhibition was first evaluated on NF-kB signaling by monitoring secreted alkaline phosphatase (SEAP) reporter levels in HEK-293 cells expressing TLR3, TLR4, TLR7, TLR9 (FIG. 1B). […]

With `NC(N)=N/N=C/c1c(Cl)cccc1Cl` [GBZ, 2-(2,6-dichlorobenzylidene)-hydrazinecarboximidamide] the “IFN-β expression (mRNA by qPCR, secreted protein by ELISA)” value [1] was “inhibited”, the “activation of IRF3 (phosphorylation, western blot)” value [1] was “inhibited” and the “IFN-β expression (mRNA by qPCR, secreted protein by ELISA)” value ([1]; listed as Guanabenz) was “inhibit”. For the same compound, the “activation of IRF3 (phosphorylation, western blot)” value ([1]; listed as Guanabenz) was “inhibit”, the “production of TNF-α” value [2] was “prevented” and the “production of type-I IFN (IFN-α)” value [2] was “prevented”.
